From BindingDB's records for doi:10.7270/Q2T15221 (Nmmlsc, 2010) come the findings set out here.

For the test, the target named is Ras-related protein Rab-2A (Canis lupus familiaris, UniProt P61105). In words: Rab2 wildtype GTP-binding inhibitors, dose response, biochemical, GST-Rab2 beads, Bodipy-FL-GTP, flow cytometry, multiplex (AID 1337). On the technique in general: Flow cytometry measures light scatter and fluorescence of single cells or particles in a stream.

Structures are written as SMILES.

Ras-related protein Rab-2A, sequence (P61105 whole entry): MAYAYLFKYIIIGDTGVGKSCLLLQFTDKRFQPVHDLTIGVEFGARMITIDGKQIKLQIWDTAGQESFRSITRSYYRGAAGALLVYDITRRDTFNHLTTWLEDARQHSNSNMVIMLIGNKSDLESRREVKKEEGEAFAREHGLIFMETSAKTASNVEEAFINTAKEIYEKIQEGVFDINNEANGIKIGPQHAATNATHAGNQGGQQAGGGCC

Broadly, the EC50 is the concentration giving half of the maximal effect. High values mean a need for much substance, low ones an effect from little substance. Consider `Cc1nn(Cc2ccccc2)c(Cl)c1C(=O)O` [1-benzyl-5-chloro-3-methyl-pyrazole-4-carboxylic acid], for which the midpoint of the response, the EC50, lay at 4.88 µM.

In turn, `N=C(N)NS(=O)(=O)c1ccc(NC(=S)NC(=O)c2ccc3c(c2)OCO3)cc1` [MLS000621545] returned an EC50 of 0.738 µM.

In turn, `COc1ccc(-c2cc(C#N)nc(N3CCNCC3)n2)cc1` [6-(4-Methoxy-phenyl)-2-piperazin-1-yl-pyrimidine-4-carbonitrile] displayed an EC50 of 30.9 µM.

`Cc1cc(C)c(C)c(C(=O)c2ccccc2C(=O)O)c1C` [2-(2,3,5,6-tetramethylbenzoyl)benzoic acid] had an EC50 of 6.26 µM.

`CCS(=O)(=O)N1N=C(c2cccc(NS(C)(=O)=O)c2)CC1c1ccc(C)cc1` (stereo not drawn) [MLS000680398]: the EC50 is 2.67 µM.

`O=C(O)c1ccccc1Sc1ncnc2sc3c(c12)CCC3`: a half-maximal response (EC50) required 2.76 µM.

Consider `COCCn1c(=S)[nH]c2cc(C(=O)N3CCc4ccccc4C3)ccc2c1=O` [SMR000310652], for which a half-maximal response (EC50) required 0.851 µM.

In the case of `CCCN1C(=O)/C(=C/C=C2\N(CC)c3ccccc3C2(C)C)SC1=S` [(5Z)-5-[(2Z)-2-(1-ethyl-3,3-dimethyl-2-indolylidene)ethylidene]-3-propyl-2-sulfanylidene-4-thiazolidinone], the EC50 came to 5.42 µM.

Compound `CC(C)C(NCc1c(Cl)cccc1Cl)C(=O)O` (stereo not drawn) [2-[(2,6-dichlorobenzyl)amino]-3-methyl-butyric acid] had an EC50 of 5.37 µM.

`O=C1C([N+](=O)[O-])=Cc2oc3c(c2C1/C=N/Cc1ccccc1)CCCC3` (stereo not drawn) [(1Z)-3-nitro-1-[[(phenylmethyl)amino]methylidene]-6,7,8,9-tetrahydrodibenzofuran-2-one] had an EC50 of 4.02 µM.

`O=C(O)/C=C/c1cn(Cc2ccccc2)nc1-c1cccs1` [(E)-3-(1-benzyl-3-thiophen-2-ylpyrazol-4-yl)prop-2-enoic acid] came in with an EC50 of 3.64 µM.

The compound `Cc1ccccc1NC(=O)C1CCCN1S(=O)(=O)c1cccc2cccnc12` (stereo not drawn) [MLS000119085] had an EC50 of 3.45 µM.

In the case of `CCOc1ccc(/C=C2\SC(N3CCc4ccccc4C3)=NC2=O)cc1` [(5Z)-2-(3,4-dihydro-1H-isoquinolin-2-yl)-5-(4-ethoxybenzylidene)-2-thiazolin-4-one], the EC50 is 35.9 µM. This EC50 lies about 10-fold higher than the previous one.

Consider `COc1ccc(C2CC(c3ccccc3)=NN2c2ccc(S(N)(=O)=O)cc2)cc1` (stereo not drawn) [4-[3-(4-methoxyphenyl)-5-phenyl-3,4-dihydropyrazol-2-yl]benzenesulfonamide], for which the EC50 turned out to be 0.704 µM.

`O=C(O)c1ccccc1NCCc1ccc(Cl)cc1` [2-[2-(4-chlorophenyl)ethylamino]benzoic acid] displayed an EC50 of 0.741 µM.

Consider `OC(CNCCc1c[nH]c2ccccc12)Cn1c2ccc(Cl)cc2c2cc(Cl)ccc21` (stereo not drawn) [1-(3,6-dichloro-9-carbazolyl)-3-[2-(3H-indol-3-yl)ethylamino]-2-propanol], for which the EC50 stood at 26.3 µM.

Compound `COC(=O)c1c(-n2c(O)c3c(c2O)[C@]2(C(=O)Nc4c(C)cc(C)cc42)N2CCC[C@@H]32)sc(C)c1C` [2-[(3S,3'aR,8'aS,8'bS)-5,7-dimethyl-1',2,3'-trioxo-2'-spiro[1H-indole-3,4'-3a,6,7,8,8a,8b-hexahydropyrrolo[3,4-a]pyrrolizine]yl]-4,5-dimethyl-3-thiophenecarboxylic acid methyl ester] gave an EC50 of 1.99 µM.

`Cc1ccc(C2=NN(S(=O)(=O)c3ccccc3)C(c3ccccc3O)C2)cc1` (stereo not drawn) [2-[2-(benzenesulfonyl)-5-(4-methylphenyl)-3,4-dihydropyrazol-3-yl]phenol] came in with an EC50 of 1.69 µM.
